{
  "source": "patent US5010105A",
  "about": "“Antihypercholesterolemic compounds” (Merck & Co., Inc., priority 1990, dated 1991)",
  "test_system": "HMG-CoA reductase",
  "experiment": "intrinsic HMG-CoA reductase inhibition, in vitro protocol of J. Med. Chem., 28, p. 347-358 (1985)",
  "type": "biochemical",
  "conditions": "IC50 of test compound compared with compactin (mevastatin) determined simultaneously; compactin assigned a value of 100",
  "protocol": "The intrinsic HMG-CoA reductase inhibition activity of the claimed compounds is measured in the in vitro protocol published in J. Med. Chem., 28, p. 347-358 (1985).\nFor estimation of relative inhibitory potencies, compactin (i.e., mevastatin) was assigned a value of 100 and the IC50 value of the test compound was compared with that of compactin determined simultaneously in the published in vitro protocol.",
  "data": [
    {"smiles": "CCC(C)(C)C(=O)O[C@H]1C[C@@H](C)C[C@]23C[C@H]2C(=O)[C@H](C)[C@H](CC[C@@H]2C[C@@H](O)CC(=O)O2)[C@@H]13", "note": "[Example 1, 6(R)-[2-[2(R),6(S)-dimethyl-8(S)-(2,2-dimethylbutyryloxy)-α-4,4a-methyleno-1,2,3,4,4a,5,6,7,8,8a(R)-decahydro-3-oxo-naphthyl-1(S)]ethyl]-4(R)-hydroxy-3,4,5,6-tetrahydro-2H-pyran-2-one]", "values": [
      {"measurement": "relative potency", "result": 186}
    ]}
  ]
}
